The source made the active and inactive calls. No cut-off for these calls is given here.
Experiments:
Candida albicans [1] = assay: Antifungal activity against Candida albicans ATCC 10231 by broth dilution method; format: functional
Danio rerio [2] = species: Danio rerio; assay: Toxicity against zebrafish embryo assessed as growth retardation at 5 ug/ml measured at 96 hrs post fertilization by inverted microscopic analysis; format: organism-based; conditions: in vivo
Aspergillus fumigatus = assay: Antifungal activity against Aspergillus fumigatus ATCC 13073 by broth dilution method; format: functional
Candida albicans [3] = assay: Induction of DNA intercalation with Candida albicans genomic DNA at 25 ug/ml after 12 hrs by ethidium bromide staining based gel electrophoresis method
Danio rerio [4] = species: Danio rerio; assay: Toxicity against zebrafish embryo assessed as effect on tail tip at 2.5 ug/ml measured at 96 hrs post fertilization by inverted microscopic analysis; format: organism-based; conditions: in vivo
Candida albicans [5] = assay: Antifungal activity against Candida albicans CA5 by broth dilution method; format: functional
Danio rerio [6] = species: Danio rerio; assay: Toxicity against zebrafish embryo assessed as effect on tail tip at 10 ug/ml measured at 96 hrs post fertilization by inverted microscopic analysis; format: organism-based; conditions: in vivo
Danio rerio [7] = species: Danio rerio; assay: Toxicity against zebrafish embryo assessed as effect on blood circulation at 10 ug/ml measured at 96 hrs post fertilization by inverted microscopic analysis; format: organism-based; conditions: in vivo
Microsporum canis = assay: Antifungal activity against Microsporum canis DMT2 by broth dilution method; format: functional
Candida albicans [8] = assay: Antibiofilm activity against Candida albicans ATCC 10231 assessed as disruption of preformed biofilm after 24 hrs by concanavalin A-FITC-staining based fluorescence microscopic analysis; format: functional
Danio rerio [9] = species: Danio rerio; assay: Toxicity against zebrafish embryo assessed as skeletal deformities at 5 ug/ml measured at 96 hrs post fertilization by inverted microscopic analysis; format: organism-based; conditions: in vivo
Pichia kudriavzevii [10] = assay: Antibiofilm activity against Pichia kudriavzevii ATCC 34135 assessed as disruption of preformed biofilm after 24 hrs by concanavalin A-FITC-staining based fluorescence microscopic analysis; format: functional
Danio rerio [11] = species: Danio rerio; assay: Toxicity against zebrafish embryo assessed as teratogenic embryos at 50 ug/ml measured at 96 hrs post fertilization by inverted microscopic analysis; format: organism-based; conditions: in vivo
[12] = system: Trichophyton mentagrophytes; assay: Antifungal activity against Trichophyton mentagrophytes DMT4 by broth dilution method; format: functional
[13] = Toxicity against zebrafish embryo assessed as dead embryos at 25 ug/ml measured at 96 hrs post fertilization by inverted microscopic analysis; format: organism-based, Danio rerio; conditions: read-out: Activity
Danio rerio [14] = assay: Toxicity against zebrafish embryo assessed as pericardial edema at 10 ug/ml measured at 96 hrs post fertilization by inverted microscopic analysis; format: organism-based; conditions: in vivo
[15] = Toxicity against zebrafish embryo measured at 96 hrs post fertilization by inverted microscopic analysis; format: organism-based, Danio rerio; conditions: zebrafish embryos
Candida parapsilosis [16] = assay: Antibiofilm activity against Candida parapsilosis C27 assessed as disruption of preformed biofilm after 24 hrs by concanavalin A-FITC-staining based fluorescence microscopic analysis; format: functional
Danio rerio [17] = species: Danio rerio; assay: Toxicity against zebrafish embryo assessed as teratogenic embryos at 5 ug/ml measured at 96 hrs post fertilization by inverted microscopic analysis; format: organism-based; conditions: in vivo
Candida albicans [18] = assay: Antibiofilm activity against Candida albicans assessed as inhibition of Spider medium-induced hyphae formation at sub-MIC after 24 hrs by propidium iodide and FITC-conjugated concanavaline A staining based fluorescence microscopy; format: functional, organism-based
Danio rerio [19] = species: Danio rerio; assay: Toxicity against zebrafish embryo assessed as effect on notochord at 2.5 ug/ml measured at 96 hrs post fertilization by inverted microscopic analysis; format: organism-based; conditions: in vivo
Danio rerio [20] = species: Danio rerio; assay: Toxicity against zebrafish embryo assessed as head malformation at 10 ug/ml measured at 96 hrs post fertilization by inverted microscopic analysis; format: organism-based; conditions: in vivo
Danio rerio [21] = assay: Toxicity against zebrafish embryo assessed as yolk edema at 10 ug/ml measured at 96 hrs post fertilization by inverted microscopic analysis; format: organism-based; conditions: in vivo
Danio rerio [22] = species: Danio rerio; assay: Toxicity against zebrafish embryo assessed as normal embryos at 25 ug/ml measured at 96 hrs post fertilization by inverted microscopic analysis; format: organism-based; conditions: in vivo
Danio rerio [23] = species: Danio rerio; assay: Toxicity against zebrafish embryo assessed as teratogenic embryos at 10 ug/ml measured at 96 hrs post fertilization by inverted microscopic analysis; format: organism-based; conditions: in vivo
Danio rerio [24] = species: Danio rerio; assay: Toxicity against zebrafish embryo assessed as unhatched embryos at 5 ug/ml measured at 96 hrs post fertilization by inverted microscopic analysis; format: organism-based; conditions: in vivo
Pichia kudriavzevii [25] = assay: Antifungal activity against Candida krusei ATCC 34135 by broth dilution method; format: functional
Danio rerio [26] = species: Danio rerio; assay: Toxicity against zebrafish embryo assessed as effect on notochord at 5 ug/ml measured at 96 hrs post fertilization by inverted microscopic analysis; format: organism-based; conditions: in vivo
Danio rerio [27] = assay: Toxicity against zebrafish embryo assessed as yolk edema at 5 ug/ml measured at 96 hrs post fertilization by inverted microscopic analysis; format: organism-based; conditions: in vivo
Danio rerio [28] = species: Danio rerio; assay: Toxicity against zebrafish embryo assessed as effect on heart beat at 5 ug/ml measured at 96 hrs post fertilization by inverted microscopic analysis; format: organism-based; conditions: in vivo
Danio rerio [29] = assay: Toxicity against zebrafish embryo assessed as pericardial edema at 2.5 ug/ml measured at 96 hrs post fertilization by inverted microscopic analysis; format: organism-based; conditions: in vivo
[30] = Toxicity against zebrafish embryo assessed as dead embryos at 50 ug/ml measured at 96 hrs post fertilization by inverted microscopic analysis; format: organism-based, Danio rerio; conditions: read-out: Activity
Danio rerio [31] = species: Danio rerio; assay: Toxicity against zebrafish embryo assessed as unhatched embryos at 2.5 ug/ml measured at 96 hrs post fertilization by inverted microscopic analysis; format: organism-based; conditions: in vivo
Danio rerio [32] = species: Danio rerio; assay: Toxicity against zebrafish embryo assessed as effect on otoliths at 10 ug/ml measured at 96 hrs post fertilization by inverted microscopic analysis; format: organism-based; conditions: in vivo
MRC5 = assay: Cytotoxicity against human MRC5 cells after 48 hrs by MTT assay; format: cell-based; conditions: MRC5, 48 h
Danio rerio [33] = species: Danio rerio; assay: Toxicity against zebrafish embryo assessed as effect on heart beat at 10 ug/ml measured at 96 hrs post fertilization by inverted microscopic analysis; format: organism-based; conditions: in vivo
Danio rerio [34] = species: Danio rerio; assay: Toxicity against zebrafish embryo assessed as effect on notochord at 10 ug/ml measured at 96 hrs post fertilization by inverted microscopic analysis; format: organism-based; conditions: in vivo
Fusarium oxysporum = assay: Antifungal activity against Fusarium oxysporum AB18 by broth dilution method; format: functional
Danio rerio [35] = species: Danio rerio; assay: Toxicity against zebrafish embryo assessed as normal embryos at 10 ug/ml measured at 96 hrs post fertilization by inverted microscopic analysis; format: organism-based; conditions: in vivo
Danio rerio [36] = species: Danio rerio; assay: Toxicity against zebrafish embryo assessed as effect on blood circulation at 2.5 ug/ml measured at 96 hrs post fertilization by inverted microscopic analysis; format: organism-based; conditions: in vivo
[37] = Toxicity against zebrafish embryo assessed as dead embryos at 10 ug/ml measured at 96 hrs post fertilization by inverted microscopic analysis; format: organism-based, Danio rerio; conditions: read-out: Activity
Danio rerio [38] = species: Danio rerio; assay: Toxicity against zebrafish embryo assessed as normal embryos at 2.5 ug/ml measured at 96 hrs post fertilization by inverted microscopic analysis; format: organism-based; conditions: in vivo
Danio rerio [39] = species: Danio rerio; assay: Toxicity against zebrafish embryo assessed as effect on eyes at 2.5 ug/ml measured at 96 hrs post fertilization by inverted microscopic analysis; format: organism-based; conditions: in vivo
Candida parapsilosis [40] = assay: Antifungal activity against Candida parapsilosis C27 by broth dilution method; format: functional; conditions: Lodderomyces parapsilosis
Candida albicans [41] = assay: Antifungal activity against Candida albicans CA5 assessed as fungal growth at sub-MIC measured after 24 hrs by time-kill dependence-based spectrophotometric analysis relative to DMSO control; format: functional, organism-based
Danio rerio [42] = species: Danio rerio; assay: Toxicity against zebrafish embryo assessed as effect on heart beat at 2.5 ug/ml measured at 96 hrs post fertilization by inverted microscopic analysis; format: organism-based; conditions: in vivo
Danio rerio [43] = species: Danio rerio; assay: Toxicity against zebrafish embryo assessed as unhatched embryos at 10 ug/ml measured at 96 hrs post fertilization by inverted microscopic analysis; format: organism-based; conditions: in vivo
Danio rerio [44] = species: Danio rerio; assay: Toxicity against zebrafish embryo assessed as growth retardation at 2.5 ug/ml measured at 96 hrs post fertilization by inverted microscopic analysis; format: organism-based; conditions: in vivo

Compound `Cc1ccc(-c2ccc(/C=N/NC(=N)N)s2)cc1.Cl` has an MIC (Candida albicans [1]) of 0.9 µg/mL, an Activity (Danio rerio [2]) of 0% and an MIC (Aspergillus fumigatus) of 6.25 µg/mL. For the same compound, the Activity (Candida albicans [3]) was “Active”, the Activity (Danio rerio [4]) was 0% and the MIC (Candida albicans [5]) was 0.5 µg/mL. It also gave an Activity (Danio rerio [6]) of 0%, an Activity (Danio rerio [7]) of 0% and an MIC (Microsporum canis) of 1.56 µg/mL. For the same compound, the MBEC (Candida albicans [8]) was 125 µg/mL, the Activity (Danio rerio [9]) was 0% and the MBEC (Pichia kudriavzevii [10]) was 250 µg/mL. The Activity (Danio rerio [11]) was 0%, the MIC [12] was 1.56 µg/mL and the mortality at 96 h, 25 ug/ml [13] was 100%. It also gave an Activity (Danio rerio [14]) of 100%, an LC50 at 96 h [15] of 8.2 µg/mL and an MBEC (Candida parapsilosis [16]) of 125 µg/mL. The Activity (Danio rerio [17]) was 80%, the Activity (Candida albicans [18]) was “Active” and the Activity (Danio rerio [19]) was 0%. The Activity (Danio rerio [20]) was 100%, the Activity (Danio rerio [21]) was 0% and the Activity (Danio rerio [22]) was 0%. The Activity (Danio rerio [23]) was 50%, the Activity (Danio rerio [24]) was 0% and the MIC (Pichia kudriavzevii [25]) was 3.12 µg/mL. It also gave an Activity (Danio rerio [26]) of 0%, an Activity (Danio rerio [27]) of 0% and an Activity (Danio rerio [28]) of 0%. For the same compound, the Activity (Danio rerio [29]) was 7.41%, the mortality at 96 h, 50 ug/ml [30] was 100% and the Activity (Danio rerio [31]) was 0%. The Activity (Danio rerio [32]) was 100%, the IC50 (MRC5) was 2.5 µg/mL and the Activity (Danio rerio [33]) was 0%. It also gave an Activity (Danio rerio [34]) of 0%, an MIC (Fusarium oxysporum) of 7.8 µg/mL and an Activity (Danio rerio [35]) of 0%. It also gave an Activity (Danio rerio [36]) of 0%, a mortality at 96 h, 10 ug/ml [37] of 50% and an Activity (Danio rerio [38]) of 56.67%. The Activity (Danio rerio [39]) was 0%, the MIC (Candida parapsilosis [40]) was 3.9 µg/mL and the Activity (Candida albicans [41]) was “inactive”. It also gave an Activity (Danio rerio [42]) of 0%, an Activity (Danio rerio [43]) of 0% and an Activity (Danio rerio [44]) of 0%.
Work on `Cl.Cl.N=C(N)N/N=C/c1ccc(-c2ccc(/C=N/NC(=N)N)s2)cc1` yielded an MIC (Candida albicans [1]) of 3.9 µg/mL, an Activity (Danio rerio [2]) of 0% and an MIC (Aspergillus fumigatus) of 25 µg/mL. The Activity (Candida albicans [3]) was “Active”, the Activity (Danio rerio [4]) was 0% and the MIC (Candida albicans [5]) was 0.5 µg/mL. It also gave an Activity (Danio rerio [6]) of 0%, an Activity (Danio rerio [7]) of 0% and an MIC (Microsporum canis) of 0.97 µg/mL. For the same compound, the MBEC (Candida albicans [8]) was 250 µg/mL, the Activity (Danio rerio [9]) was 0% and the MBEC (Pichia kudriavzevii [10]) was 500 µg/mL. For the same compound, the Activity (Danio rerio [11]) was 0%, the MIC [12] was 3.9 µg/mL and the mortality at 96 h, 25 ug/ml [13] was 3.33%. It also gave an Activity (Danio rerio [14]) of 0%, an LC50 at 96 h [15] of over 50 µg/mL and an MBEC (Candida parapsilosis [16]) of 500 µg/mL. For the same compound, the Activity (Danio rerio [17]) was 0%, the Activity (Candida albicans [18]) was “Active” and the Activity (Danio rerio [19]) was 0%. It also gave an Activity (Danio rerio [20]) of 0%, an Activity (Danio rerio [21]) of 0% and an Activity (Danio rerio [22]) of 96.67%. It also gave an Activity (Danio rerio [23]) of 0%, an Activity (Danio rerio [24]) of 0% and an MIC (Pichia kudriavzevii [25]) of 25 µg/mL. For the same compound, the Activity (Danio rerio [26]) was 0%, the Activity (Danio rerio [27]) was 0% and the Activity (Danio rerio [28]) was 0%. The Activity (Danio rerio [29]) was 0%, the mortality at 96 h, 50 ug/ml [30] was 3.33% and the Activity (Danio rerio [31]) was 0%. For the same compound, the Activity (Danio rerio [32]) was 0%, the IC50 (MRC5) was 10 µg/mL and the Activity (Danio rerio [33]) was 0%. The Activity (Danio rerio [34]) was 0%, the MIC (Fusarium oxysporum) was over 250 µg/mL and the Activity (Danio rerio [35]) was 100%. For the same compound, the Activity (Danio rerio [36]) was 0%, the mortality at 96 h, 10 ug/ml [37] was 0% and the Activity (Danio rerio [38]) was 100%. For the same compound, the Activity (Danio rerio [39]) was 0%, the MIC (Candida parapsilosis [40]) was 50 µg/mL and the Activity (Candida albicans [41]) was “inactive”. The Activity (Danio rerio [42]) was 0%, the Activity (Danio rerio [43]) was 0% and the Activity (Danio rerio [44]) was 0%.

From ChEMBL document CHEMBL3763135, “Synthesis and evaluation of thiophene-based guanylhydrazones (iminoguanidines) efficient against panel of voriconazole-resistant fungal isolates” (Bioorg Med Chem, 2016)
